Test results: patent publication US8343961B2, “Substituted heterocyclic compounds” (ArQule, Inc., priority 2009, dated 2013)

How the values were obtained:
EphA8 = target: T1, EphA8 (Homo sapiens, UniProt P29322); assay: EphA8 Kinase Activity Assay; assay type: biochemical; conditions: read-out: EphA8, % INH, at 30 uM
T1 sequence (P29322 28-1005): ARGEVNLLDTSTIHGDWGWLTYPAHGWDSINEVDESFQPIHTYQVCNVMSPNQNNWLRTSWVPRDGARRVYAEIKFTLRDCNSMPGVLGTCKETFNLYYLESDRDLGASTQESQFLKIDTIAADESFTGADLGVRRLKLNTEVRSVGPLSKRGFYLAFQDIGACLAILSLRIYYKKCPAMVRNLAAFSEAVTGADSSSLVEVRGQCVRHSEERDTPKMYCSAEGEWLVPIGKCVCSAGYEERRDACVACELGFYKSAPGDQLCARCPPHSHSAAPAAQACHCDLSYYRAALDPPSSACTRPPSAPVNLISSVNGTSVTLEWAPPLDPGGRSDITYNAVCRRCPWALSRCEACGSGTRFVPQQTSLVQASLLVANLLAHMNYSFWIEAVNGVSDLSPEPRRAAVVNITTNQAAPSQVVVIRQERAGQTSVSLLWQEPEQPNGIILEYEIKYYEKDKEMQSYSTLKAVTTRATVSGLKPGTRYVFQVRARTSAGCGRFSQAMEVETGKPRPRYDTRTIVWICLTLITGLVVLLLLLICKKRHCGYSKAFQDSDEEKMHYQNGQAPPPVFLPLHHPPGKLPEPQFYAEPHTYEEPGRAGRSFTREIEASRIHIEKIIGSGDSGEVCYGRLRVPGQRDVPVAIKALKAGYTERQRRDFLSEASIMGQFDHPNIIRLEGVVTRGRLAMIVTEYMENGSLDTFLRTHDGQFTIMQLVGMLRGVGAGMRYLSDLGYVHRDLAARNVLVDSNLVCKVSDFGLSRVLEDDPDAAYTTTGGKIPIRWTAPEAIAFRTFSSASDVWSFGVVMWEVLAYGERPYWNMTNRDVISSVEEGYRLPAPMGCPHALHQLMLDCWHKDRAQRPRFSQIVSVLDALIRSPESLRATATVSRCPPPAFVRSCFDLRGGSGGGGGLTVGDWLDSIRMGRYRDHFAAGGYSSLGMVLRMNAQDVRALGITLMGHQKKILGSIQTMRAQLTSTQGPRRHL
Method: (§1) Nunc Maxisorb plates are coated with streptavidin by overnight incubation with 100 μL per well of 1 μg/ml Streptavidin in DPBS. Prior to the start of the experiment, the plates are washed with TBST (3×200 μL) and blocked for at least 1 hour by adding 150 μL of 5% BSA/TBST. The plates are washed with TBST (3×200 μL/well) and left dry immediately before the capture step.
The test articles and control (Staurosporine) are prepared using the following assay buffer @ 3× desired final concentration (50 mM Tris-HCl, 0.02 mg/ml BSA, 10 mM MgCl2, 0.1 mM Na3VO4, 1 mM EGTA, 12.5 μM ATP, 0.01% NP-40, 1 mM DTT in 10% glycerol/water). In a reaction plate are added rapidly 20 μl test article (or control) and 20 μl EphA8 (0.12 ng/μl final concentration). The plate is incubated for 15 minutes. To the reaction plate is added 20 μl of Pyk-2 (0.75 ng/μl final concentration). The plate is incubated at room temperature for one hour. From the reaction plate, 50 μl is transferred to the streptavidin coated plate. The capture plate is incubated at room temperature for 30 minutes, then washed 6× with TBST. To the capture plate is added 100 μL/well of Cell Signaling anti-phospho tyrosine at a dilution of 1:3000 in 2% BSA/TBST. The plate is incubated for one hour at room temperature then washed 6× with TBST. To the capture plate is added 100 μL/well of Alkaline Phosphatase Tagged Goat anti Mouse Antibody at a dilution of 1:4000 in 2% BSA/TBST. The plate is incubated for one hour at room temperature then washed 6× with TBST. The fluorescent readout is initiated by the addition of 100 μl/well of Attophos reagent (6 mg/10 mL). The reading is done on the Perkin Elmer Envision system.

RET kinase = RET kinase (Homo sapiens, UniProt P07949); assay: RET Kinase Activity Assay; assay type: biochemical; conditions: read-out: Ret, % INH, at 30 uM
Method: as §1, with “The disclosed compounds were assayed for their ability to inhibit the activity of RET kinase. Nunc” for “Nunc”, “Maxwasorb” for “Maxisorb”, “were” for “are”, “μg/mL” for “μg/ml”, “[…])” for “μL/well)”
The test articles and controls (Staurosporine and Sutent) were prepared using the following assay buffer @ 3× desired final concentration (50 mM […], 0.02 mg/mL BSA, 10 mM MgCl2, 0.1 mM Na3VO4, 1 mM EGTA, 75 μM ATP0.01% NP-40, 2 mM DTT in 10% glycerol/water). In a reaction plate, were added rapidly 20 μL test article (or control) and 20 μL RET (0.25 ng/4 final concentration). The plate was incubated for 15 minutes. To the reaction plate was added 20 μL of Pyk-2 (0.25 ng/4 final concentration). The plate was incubated at room temperature for one hour.
From the reaction plate, 50 μL was transferred to the streptavidin coated plate. The capture plate was incubated at room temperature for 30 minutes then washed 6× with TBST. To the capture plate was added 100 μL/well of Cell Signaling anti-phospho tyrosine at a dilution of 1:3000 in 2% BSA/TBST. The plate was incubated for one hour at room temperature then washed 6× with TBST. To the capture plate was added 100 μL/well of Alkaline Phosphatase Tagged Goat anti Mouse Antibody at a dilution of 1:4000 in 2% BSA/TBST. The plate was incubated for one hour at room temperature then washed 6× with TBST. The fluorescent readout was initiated by the addition of 100 μL/well of Attophos reagent (6 mg/10 mL). The reading was done on the Perkin Elmer Envision system.

Sequence of RET kinase (P07949 29-1114): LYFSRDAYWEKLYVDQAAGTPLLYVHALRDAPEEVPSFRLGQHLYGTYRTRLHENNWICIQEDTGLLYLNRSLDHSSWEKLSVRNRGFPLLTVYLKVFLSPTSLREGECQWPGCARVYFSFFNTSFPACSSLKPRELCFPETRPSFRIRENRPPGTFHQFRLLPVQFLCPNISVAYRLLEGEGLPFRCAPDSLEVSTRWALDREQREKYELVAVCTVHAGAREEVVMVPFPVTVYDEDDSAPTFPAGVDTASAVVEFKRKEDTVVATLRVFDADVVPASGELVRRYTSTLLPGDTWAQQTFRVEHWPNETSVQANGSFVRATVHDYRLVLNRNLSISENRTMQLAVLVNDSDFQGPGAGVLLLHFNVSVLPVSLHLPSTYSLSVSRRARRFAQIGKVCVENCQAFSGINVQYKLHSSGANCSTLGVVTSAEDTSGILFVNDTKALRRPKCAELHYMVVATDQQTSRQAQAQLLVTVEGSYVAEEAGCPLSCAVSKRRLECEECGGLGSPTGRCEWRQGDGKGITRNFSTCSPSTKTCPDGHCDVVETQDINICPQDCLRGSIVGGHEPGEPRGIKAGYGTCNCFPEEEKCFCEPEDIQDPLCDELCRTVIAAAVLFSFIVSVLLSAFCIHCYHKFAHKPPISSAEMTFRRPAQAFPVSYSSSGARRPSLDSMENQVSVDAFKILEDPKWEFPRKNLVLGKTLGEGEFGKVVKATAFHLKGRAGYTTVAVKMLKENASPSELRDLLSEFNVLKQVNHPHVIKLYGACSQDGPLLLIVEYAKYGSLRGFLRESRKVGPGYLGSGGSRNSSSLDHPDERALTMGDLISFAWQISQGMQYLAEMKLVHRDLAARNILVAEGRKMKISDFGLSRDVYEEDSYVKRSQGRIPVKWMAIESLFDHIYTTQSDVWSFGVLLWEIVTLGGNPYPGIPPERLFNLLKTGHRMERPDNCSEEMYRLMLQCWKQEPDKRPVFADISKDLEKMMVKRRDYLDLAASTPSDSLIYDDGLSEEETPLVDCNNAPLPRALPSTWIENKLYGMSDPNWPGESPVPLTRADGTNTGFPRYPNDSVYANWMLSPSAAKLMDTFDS

## Nc1nc(N2CCN(CCCc3cccc(F)c3)c3ccccc3C2)c2nc[nH]c2n1 [Compound 39, 6-{1-[3-(3-fluorophenyl)propyl]-1,2,3,5-tetrahydro-4H-1,4-benzodiazepin-4-yl}-9H-purin-2-amine]
EphA8
  inhibition at 30 µM: < 50%
RET kinase
  inhibition at 30 µM: 50 to 79%

## Nc1nc(N2CCN(CCCc3cccc(Cl)c3)c3ccccc3C2)c2cn[nH]c2n1 [Compound 8, 4-{1-[3-(3-chlorophenyl)propyl]-1,2,3,5-tetrahydro-4H-1,4-benzodiazepin-4-yl}-1H-pyrazolo[3,4-d]pyrimidin-6-amine]
EphA8
  inhibition at 30 µM: < 50%
RET kinase
  inhibition at 30 µM: < 50%

## Nc1nc(N2CCN(Cc3ccc(Cl)cc3Cl)c3ccccc3C2)c2cn[nH]c2n1 [Compound 32, 4-[1-(2,4-dichlorobenzyl)-1,2,3,5-tetrahydro-4H-1,4-benzodiazepin-4-yl]-1H-pyrazolo[3,4-d]pyrimidin-6-amine]
EphA8
  inhibition at 30 µM: < 50%
RET kinase
  inhibition at 30 µM: < 50%

## Nc1nc(N2CCN(Cc3ccc(F)c(F)c3)c3ccccc3C2)c2nc[nH]c2n1 [Compound 46, 6-[1-(3,4-difluorobenzyl)-1,2,3,5-tetrahydro-4H-1,4-benzodiazepin-4-yl]-9H-purin-2-amine]
EphA8
  inhibition at 30 µM: < 50%
RET kinase
  inhibition at 30 µM: 50 to 79%

## COc1cc2c(cc1OC)C(c1cccc(Cl)c1F)N(c1nc(N)nc3[nH]cnc13)CC2 (stereo not shown) [Compound 49, 6-[1-(3-chloro-2-fluorophenyl)-6,7-dimethoxy-3,4-dihydroisoquinolin-2(1H)-yl]-9H-purin-2-amine]
EphA8
  inhibition at 30 µM: < 50%
RET kinase
  inhibition at 30 µM: < 50%

## Nc1nc(N2CCN(Cc3ccc(Cl)cc3)c3ccccc3C2)c2cn[nH]c2n1 [Compound 23, 4-[1-(4-chlorobenzyl)-1,2,3,5-tetrahydro-4H-1,4-benzodiazepin-4-yl]-1H-pyrazolo[3,4-d]pyrimidin-6-amine]
EphA8
  inhibition at 30 µM: 50 to 79%
RET kinase
  inhibition at 30 µM: < 50%

## Nc1nc(N2CCN(Cc3ccc(Cl)cc3Cl)c3ccccc3C2)c2nc[nH]c2n1 [Compound 31, 6-[1-(2,4-dichlorobenzyl)-1,2,3,5-tetrahydro-4H-1,4-benzodiazepin-4-yl]-9H-purin-2-amine]
EphA8
  inhibition at 30 µM: < 50%
RET kinase
  inhibition at 30 µM: < 50%

## COc1ccc(CN2CCN(c3nc(N)nc4[nH]ncc34)Cc3ccccc32)cc1OC [Compound 28, 4-[1-(3,4-dimethoxybenzyl)-1,2,3,5-tetrahydro-4H-1,4-benzodiazepin-4-yl]-1H-pyrazolo[3,4-d]pyrimidin-6-amine]
EphA8
  inhibition at 30 µM: < 50%
RET kinase
  inhibition at 30 µM: < 50%

## COc1ccccc1CN1CCN(c2nc(N)nc3[nH]ncc23)Cc2ccccc21 [Compound 10, 4-[1-(2-methoxybenzyl)-1,2,3,5-tetrahydro-4H-1,4-benzodiazepin-4-yl]-1H-pyrazolo[3,4-d]pyrimidin-6-amine]
EphA8
  inhibition at 30 µM: < 50%
RET kinase
  inhibition at 30 µM: < 50%

## COc1ccc(OC)c(CN2CCN(c3nc(N)nc4[nH]cnc34)Cc3ccccc32)c1 [Compound 35, 6-[1-(2,5-dimethoxybenzyl)-1,2,3,5-tetrahydro-4H-1,4-benzodiazepin-4-yl]-9H-purin-2-amine]
EphA8
  inhibition at 30 µM: < 50%
RET kinase
  inhibition at 30 µM: < 50%

## Nc1nc(N2CCN(Cc3ccccc3Cl)c3ccccc3C2)c2nc[nH]c2n1 [Compound 13, 6-[1-(2-chlorobenzyl)-1,2,3,5-tetrahydro-4H-1,4-benzodiazepin-4-yl]-9H-purin-2-amine]
EphA8
  inhibition at 30 µM: < 50%
RET kinase
  inhibition at 30 µM: < 50%

## Cc1ccccc1CN1CCN(c2nc(N)nc3[nH]cnc23)Cc2ccccc21 [Compound 11, 6-[1-(2-methylbenzyl)-1,2,3,5-tetrahydro-4H-1,4-benzodiazepin-4-yl]-9H-purin-2-amine]
EphA8
  inhibition at 30 µM: < 50%
RET kinase
  inhibition at 30 µM: 50 to 79%

## Cc1cccc(CN2CCN(c3nc(N)nc4[nH]ncc34)Cc3ccccc32)c1 [Compound 34, 4-[1-(3-methylbenzyl)-1,2,3,5-tetrahydro-4H-1,4-benzodiazepin-4-yl]-1H-pyrazolo[3,4-d]pyrimidin-6-amine]
EphA8
  inhibition at 30 µM: < 50%
RET kinase
  inhibition at 30 µM: < 50%

## Cc1ccccc1CN1CCN(c2nc(N)nc3[nH]ncc23)Cc2ccccc21 [Compound 12, 4-[1-(2-methylbenzyl)-1,2,3,5-tetrahydro-4H-1,4-benzodiazepin-4-yl]-1H-pyrazolo[3,4-d]pyrimidin-6-amine]
EphA8
  inhibition at 30 µM: < 50%
RET kinase
  inhibition at 30 µM: < 50%

## Nc1nc(N2CCN(Cc3cccc4ccccc34)c3ccccc3C2)c2nc[nH]c2n1 [Compound 17, 6-[1-(1-naphthylmethyl)-1,2,3,5-tetrahydro-4H-1,4-benzodiazepin-4-yl]-9H-purin-2-amine]
EphA8
  inhibition at 30 µM: 50 to 79%
RET kinase
  inhibition at 30 µM: 50 to 79%

## COc1ccc(CN2CCN(c3nc(N)nc4[nH]cnc34)Cc3ccccc32)cc1OC [Compound 27, 6-[1-(3,4-dimethoxybenzyl)-1,2,3,5-tetrahydro-4H-1,4-benzodiazepin-4-yl]-9H-purin-2-amine]
EphA8
  inhibition at 30 µM: < 50%
RET kinase
  inhibition at 30 µM: < 50%

## Nc1nc(N2CCN(CCCc3ccccc3)c3ccccc3C2)c2nc[nH]c2n1 [Compound 40, 6-[1-(3-phenylpropyl)-1,2,3,5-tetrahydro-4H-1,4-benzodiazepin-4-yl]-9H-purin-2-amine]
EphA8
  inhibition at 30 µM: < 50%
RET kinase
  inhibition at 30 µM: 50 to 79%

## CC(C)c1ccc(CN2CCN(c3nc(N)nc4[nH]cnc34)Cc3ccccc32)cc1 [Compound 3, 6-[1-(4-isopropylbenzyl)-1,2,3,5-tetrahydro-4H-1,4-benzodiazepin-4-yl]-9H-purin-2-amine]
EphA8
  inhibition at 30 µM: < 50%
RET kinase
  inhibition at 30 µM: < 50%

## Nc1nc(N2CCN(Cc3cccc(F)c3)c3ccccc3C2)c2cn[nH]c2n1 [Compound 6, 4-[1-(3-fluorobenzyl)-1,2,3,5-tetrahydro-4H-1,4-benzodiazepin-4-yl]-1H-pyrazolo[3,4-d]pyrimidin-6-amine]
EphA8
  inhibition at 30 µM: 50 to 79%
RET kinase
  inhibition at 30 µM: 50 to 79%

## Nc1nc(N2CCN(Cc3ccccc3Cl)c3ccccc3C2)c2cn[nH]c2n1 [Compound 14, 4-[1-(2-chlorobenzyl)-1,2,3,5-tetrahydro-4H-1,4-benzodiazepin-4-yl]-1H-pyrazolo[3,4-d]pyrimidin-6-amine]
EphA8
  inhibition at 30 µM: < 50%
RET kinase
  inhibition at 30 µM: < 50%
